# Patent US12390490B2, “Sphingolipid-based selenium compounds, methods for their preparation, and pharmaceutical uses thereof, including as antitumor agents” (MUSC FOUNDATION FOR RESEARCH DEVELOPMENT, priority 2019, dated 2025)
# Entries after “also recorded” stand apart in the source; their conditions may differ.
# What was measured:
# HNSCC-1A cells [1] = assay: ACO2 levels by Western blotting (lethal mitophagy); format: cell-based, human; details: 4 μM, 48 hours
# Description: FIG. 6 is a graph showing levels of aconitase 2 (ACO2) (reported as normalized cumulative pixel intensity) in head and neck squamous cell carcinoma (HNSCC-1A) cells incubated with 4 micromolar (μM) concentrations of a pyridinium-substituted ceramide-based compound (LCL-461), the selenite conjugated salt of a pyridinium-substituted ceramide-based compound (LCL-768), or vehicle for 48 hours. ACO2 levels were measured via Western blotting. Image-processing software was used to quantify the band intensity from the blots.
# HNSCC-1A cells [2] = assay: LC3B-II levels by Western blotting (autophagy); format: cell-based, human; details: 4 μM, 1.5 hours
# Description: LC3B-II levels were measured via Western blotting. Image-processing software was used to quantify the band intensity from the blots.
# (§1) Cellular lysates in radioimmunoprecipitation assay (RIPA) buffer containing a protease inhibitor cocktail (Sigma-Aldrich, St. Louis, Missouri, United States of America) were normalized by the total protein level and analyzed by sodium dodecyl sulfate-polyacrylamide gel electrophoresis (SDS-PAGE) and immunoblotting with corresponding antibodies. For immunoprecipitation, precleared cytosolic fractions were incubated overnight with 2 μg of corresponding antibodies at 4° C., followed by 1-hour incubation with Protein A/G Agarose (Santa Cruz Biotechnology, Inc., Dallas, Texas, United States of America) (50 μl of a 50% slurry). Resin was washed three to five times, and pulled-down proteins were analyzed by SDS-PAGE and Western blotting with corresponding antibodies.
# HNSCC-1A cells [3] = assay: Cell death / MTT cell viability assay; format: cell-based, human
# HNSCC-1A cells [4] = assay: Confocal immunofluorescence, colocalization of ceramide and Tom20; format: cell-based, human; details: 1 μM or 4 μM, 1.5 hours, compared to vehicle and LCL-461
# HNSCC-1A cells [5] = assay: ATP levels (lethal mitophagy); format: cell-based, human; details: 4 μM, 48 hours
# Description: FIG. 7 is a graph showing adenosine triphosphate (ATP) activity in head and neck squamous cell carcinoma (HNSCC-1A) cells incubated with 4 micromolar (μM) concentrations of a pyridinium-substituted ceramide-based compound (LCL-461), the selenite conjugated salt of a pyridinium-substituted ceramide-based compound (LCL-768), or vehicle for 48 hours. ATP levels in the samples were measured, and all samples were normalized to a standard curve and then to vehicle activity.
# 43RG32 cells = assay: Western blotting of mitophagy markers, 43RG32 cells; format: cell-based, human
# Description: (§2) FIG. 10 is a composite gel image of Western blot analysis of extracts from non-cancerous human astrocytes (HA), 43RG32 and U118 cells treated with 0 micromolar (0 μM) or 5 μM LCL-768. The effects of LCL-768 on LC3-II activation, aconitase 2 (ACO2) degradation, and dynamin-related GTPase (Drp1) dephosphorylation at […] were measured as markers of mitophagy (n=3).
# (§3) 43RG32 and U118 glioblastoma cells were treated with (+) or without (−) 5 micromolar (5 μM) LCL-768 and with (+) or without (−) the Drp1 inhibitor Mdivi-1. Actin was used as a loading control (n=3).
# as §1
# U118 cells = assay: Western blotting of mitophagy markers, U118 cells; format: cell-based, human
# Description: as §2, §3, §1
# [6] = test system: non-cancerous adjacent tissue organoids; assay: Ex vivo non-cancerous adjacent tissue organoids, mitophagy; format: cell-based, human; details: ex vivo treatment, same patient
# From the text: (§4) To validate the clinical relevance of the activation of mitophagy, 2D organoids^4 were developed using tumor tissues obtained from a patient with HNSCC. […] The co-localization of GM130/Calnexin was used as a control.
# HNSCC organoids [7] = assay: Ex vivo 2D HNSCC patient organoids, CerS1/Tom20 co-localization (mitophagy); format: cell-based, human; details: ex vivo treatment
# From the text: FIG. 14A is a series of microscopy images showing the H&E staining (top row) and fluorescence imaging of the co-localization of translocase of outer mitochondrial membrane 20 (Tom20) and CerS1 (as a measure of mitophagy, middle row) in two-dimensional (2D) organoids developed from a patient with head and neck squamous cell carcinoma (HNSCC) in response to treatment with vehicle, LCL-768, sodium selenite (SoSe), rapamycin, or cisplatin ex vivo. Co-localization of cis-Golgi matrix protein 130 kDa (GM130) and Calnexin was used as a negative control (bottom row).
# FIG. 14B is a graph showing the quantification of colocalization of Tom20 and CerS1 from the treated two-dimensional (2D) organoids described for FIG. 14A.
# as §4
# [8] = test system: normal human astrocyte (HA) cells; assay: MTT cell viability, normal human astrocytes; format: cell-based; details: 5 μM, 24 hour treatment
# normal murine astrocytes = assay: MTT cell viability, normal murine astrocytes; format: cell-based; details: 5 μM, 24 hour treatment
# HNSCC organoids [9] = details: ex vivo treatment, MALDI-Imaging
# From the text: as §4
# HNSCC-IA cells = assay: Confocal immunofluorescence, colocalization of CerS1 and mitochondrial protein Tom20; format: cell-based, human; details: 1 μM, 3 hours
# Description: FIG. 3A is a series of confocal microscopy images of cells treated with 1 micromolar (1 μM) concentrations of a pyridinium-substituted ceramide-based selenium conjugated compound (LCL-768) or vehicle for 3 hours and labeled for Ceramide Synthase 1 (CerS1; top row), mitochondria (middle row) or both (bottom row).
# UM-SCC-22A (squamous carcinoma) cells (50,000 per well) were plated on glass coverslips in a six-well plate for 18 hours. Cells were fixed and permeabilized using 4% paraformaldehyde (20 min) and 0.1% Triton X-100 in 1× phosphate-buffered saline (PBS) (pH 7.4) for 10 min. The cells were then blocked with 1% bovine serum albumin (BSA)/PBS (pH 7.4) for 1 hour. […] Immunofluorescence was performed using a Leica TCS SP2 AOBS confocal microscope (Leica Microsystems, Wetzler, Germany), an Olympus FV10i microscope (Olympus Corporation, Tokyo, Japan) with 543- and 488-nm channels for visualizing green and red fluorescence, or a Zeiss LSM 880 NLO Quasar confocal/multiphoton microscope with a Fast Airyscan super-resolution detector (Carl Zeiss, AG, Oberkochen, Germany). […] At least three random fields were selected for image quantification.
# [10] = Maximum tolerated dose in SCID mice; format: in vivo
# UM-SCC-1A-xenografts = test system: UM-SCC-1A-xenografts
# From the text: Tumor volume (cubic millimeters (mm^3)) is provided for both […] mice and mice treated with vehicle as a control.
# [11] = test system: non-cancerous human astrocytes (HA); details: 5 μM
# Description: as §2, §1
# [12] = test system: murine glioblastoma (GL261) cells; details: 5 μM, 24 hour treatment
# HNSCC-1A cells [13] = details: 1 and 2.5 μM, live HNSCC-1A cells
# UM-SCC-1A cells [14] = assay: Subcellular accumulation by differential centrifugation and mass spectrometry; format: cell-based, human; details: 10 μM, 6-24 hours
# Description: FIG. 13D is a graph showing the subcellular accumulation of LCL-768 (10 micromolar (μM)) after 0, 3, 6, 9, or 24 hours in the nucleus, mitochondria and cytoplasm of human head and neck squamous cell carcinoma (HNSCC) cells (UM-SCC-1A cells) as measured by mass spectrometry/lipidomics after differential centrifugation.
# The effects of LCL-768 on mitophagy induction in UM-SCC-IA cells transfected stably with the shRNA against LC3B (shLC3) was studied and compared to controls (UM-SCC-1A cells transfected with a control shRNA, shSCR). […] The subcellular accumulation of LCL-768 was studied in the same cells. Nucleus, mitochondria and cytoplasm in LCL-768-treated cells were isolated by differential centrifugation and LCL-768 accumulation was measured by mass spectrometry. […] Thus, these studies further support mitochondrial accumulation and efficacy of LCL-768 in inducing mitophagy in UM-SCC-1A cells.
# human glioblastoma cells = details: 5 μM, 24 hour treatment, compared to LCL-461 or sodium selenite
# [15] = test system: orthotopic GB U118-xenograft-derived tumor; assay: Orthotopic GB U118 xenograft in brains of SCID mice; format: in vivo; details: 1 mg/kg/day for 14 days, female SCID mice
# UM-SCC-1A cells [16] = assay: CYTO-ID mitophagy detection in UM-SCC-1A cells with shSCR or shLC3; format: cell-based, human
compound,measurement,setting,value
"CCCCCCCCCCCCCCCCCC(=O)N[C@@H](CO)[C@H](O)/C=C/CCCCCCCCC[n+]1ccccc1.[Br-] [LCL-461, D-erythro-2-N-octadecanoyl-14-(1′-pyridinium)-sphingosine bromide, reference compound]",levels of ACO2 compared to vehicle (lethal mitophagy),HNSCC-1A cells [1],decreased levels
same,LC3B-II levels (autophagy),HNSCC-1A cells [2],increased LC3B-II levels
same,IC50,"HNSCC-1A cells [3]; Homo sapiens, 24 hours",~10 µM
same,IC50,"HNSCC-1A cells [3]; Homo sapiens, 48 hours",~4 µM
same,colocalization of ceramide and Tom20 (selenite-stress response),HNSCC-1A cells [4],does not cause a strong selenite-stress response
same,levels of ATP compared to vehicle (lethal mitophagy),HNSCC-1A cells [5],decreased levels
"COc1cc(-n2c(=S)[nH]c3ccccc3c2=O)c(Cl)cc1Cl [Mdivi-1, reference compound]",effect of Drp1 inhibition on LCL-768-mediated ACO2 degradation / mitophagy,43RG32 cells; with 5 μM LCL-768,almost completely prevented; also recorded: prevents
same,effect of Drp1 inhibition on LCL-768-mediated ACO2 degradation / mitophagy,U118 cells; with 5 μM LCL-768,almost completely prevented; also recorded: prevents
"N.N.[Cl][Pt][Cl] [cisplatin, reference compound]",mitophagy induction in non-cancerous adjacent tissue organoids,[6],did not affect mitophagy induction
same,mitophagy (co-localization of CerS1 and Tom20) compared to vehicle-treated controls,HNSCC organoids [7],induced mitophagy
"O=[Se](O)O [sodium selenite, reference compound]",cell death in human normal astrocytes,[8],not induced
same,cell death in mouse normal astrocytes,normal murine astrocytes,not induced
"CCCCCCCCCCCCCCCCCC(=O)N[C@@H](CO)[C@H](O)/C=C/CCCCCCCCC[n+]1ccccc1.CCCCCCCCCCCCCCCCCC(=O)N[C@@H](CO)[C@H](O)/C=C/CCCCCCCCC[n+]1ccccc1.O=[Se]([O-])[O-] [LCL-768, D-erythro-14-(1′-pyridinium)-N-octadecanoyl-sphingosine selenite]",ACO2 degradation (mitophagy),43RG32 cells; 5 μM,induced
same,LC-3B-II activation (autophagy marker),43RG32 cells; 5 μM,induced
same,endogenous C24-ceramide compared to controls,HNSCC organoids [9],decreased
same,colocalization of CerS1 and mitochondrial protein Tom20,HNSCC-IA cells,significant increase
same,maximum tolerated dose (MTD),[10],10 mg/kg
same,cell death in human normal astrocytes,[8],not induced
same,levels of ACO2 compared to vehicle (lethal mitophagy),HNSCC-1A cells [1],decreased levels
same,ACO2 degradation (mitophagy),U118 cells; 5 μM,induced
same,LC-3B-II activation (autophagy marker),U118 cells; 5 μM,induced
same,tumor growth compared to vehicle-treated mice,"UM-SCC-1A-xenografts; 10 mg/kg intraperitoneal every other day, 21 days, SCID mice",inhibited tumor growth significantly
same,"mitophagy in xenograft-derived tumors (ACO2, P-S637 Drp1, S-NO-Drp1)","UM-SCC-1A-xenografts; day 21, Western blotting",induction of mitophagy
same,accumulation in tumor vs adjacent non-tumorigenic tissues,"UM-SCC-1A-xenografts; day 21, mass spectrometry",higher tumor accumulation
same,ACO2 degradation (mitophagy),[11]; HA cells,not
same,LC-3B-II activation (autophagy marker),[11]; HA cells,not
same,"mitophagy (LC3-II activation, ACO2 degradation, Drp1 dephosphorylation as markers)",[11]; as stated in legend of FIG. 10,induces mitophagy
same,autophagic cell death in mouse glioblastoma cells,[12],induced autophagic cell death in mouse glioblastoma cells at a higher level than either LCL-461 or sodium selenite
same,LC3B-II levels (autophagy),HNSCC-1A cells [2],increased LC3B-II levels
same,time of exposure at which mitophagy is occurring,HNSCC-1A cells [13],≤ 90 min
same,mitophagy induction in non-cancerous adjacent tissue organoids,[6],did not affect mitophagy induction
same,"subcellular accumulation (nucleus, mitochondria, cytoplasm)",UM-SCC-1A cells [14],largely accumulated in the mitochondria
same,autophagic cell death in human glioblastoma cells,human glioblastoma cells,induced autophagic cell death
same,cell death in mouse normal astrocytes,normal murine astrocytes,not induced
same,tumor growth in the brain (MRI) compared to controls,[15]; osmotic pump into brain tumor,remarkably reduced tumor growth
same,increase of survival post-treatment,"[15]; osmotic pump, vs vehicle",about 10 days
same,IC50,HNSCC-1A cells [3]; 24 hours,~10 µM
same,IC50,HNSCC-1A cells [3]; 48 hours,~4 µM
same,colocalization of ceramide and Tom20 (selenite-stress response),HNSCC-1A cells [4],increased colocalization
same,mitophagy induction in shSCR-controls,"UM-SCC-1A cells [16]; 10 μM, 6, 9 and 24 hours, UM-SCC-1A shSCR",highly induced mitophagy
same,mitophagy induction after knockdown of LC3,"UM-SCC-1A cells [16]; 10 μM, UM-SCC-1A shLC3",almost completely prevented
same,levels of ATP compared to vehicle (lethal mitophagy),HNSCC-1A cells [5],decreased levels
same,mitophagy (co-localization of CerS1 and Tom20) compared to vehicle-treated controls,HNSCC organoids [7],induced mitophagy
